Publication PMC11110795, “Design, synthesis and antimycobacterial activity of imidazo[1,5-a]quinolines and their zinc-complexes” (RSC Medicinal Chemistry, 2024)
≈ marks a conversion by molar mass, not a printed value. Where two headings read alike, the source gives them in different places.

Tests used:
[1] = tested on: Mycobacterium tuberculosis H37Ra; assay: MIC, BacTiter-Glo ATP quantification, surrogate Mtb strain; assay type: cell-based; conditions: for MIC Mtb: Mycobacterium tuberculosis H37Ra, 7H9-palmitate, 7 days, BacTiter-Glo, n=3; for MIC: Mycobacterium tuberculosis, H37RA, 168 h, read-out: MIC Mtb, Mycobacterium tuberculosis H37Ra, 7H9-palmitate, 7 days, BacTiter-Glo, n=3
Procedure: The antimicrobial effect of the 21 synthesized compounds was initially accessed against a panel of 4 microbial indicator strains (Escherichia coli ATCC35218, Staphylococcus aureus ATCC33592, Septoria tritici MUCL45408 and Mycobacterium tuberculosis H37Ra). Cytotoxicity was investigated using an epithelia cell line from human lung carcinoma (Calu-3).
The minimum inhibitory concentration (MIC) of the […] compounds 5a-i, 6a-b,7a, 8a and C1-8 was determined as previously described with only minor changes. 6,7 Briefly, the cell density of an overnight cultures of Escherichia coli ATCC35218 and Staphylococcus aureus […] was diluted to 5 × 10^5 cells/mL in cation adjusted Mueller Hinton II medium (Becton Dickinson, Sparks, NV, USA) and distributed into 96-well plates. Three 12-point dilution series of rifampicin, tetracycline and gentamicin ranging from 64 - 0.03 µg/mL (all Sigma Aldrich, St. Louis, MO, USA), respectively, were used as positive controls. All tested compounds were dissolved in dimethyl sulfoxide (DMSO, Carl Roth GmbH + Co., Karlsruhe, Germany) and tested in triplicate at the same concentrations as the positive controls.
Bacterial suspensions without test compound or positive control were used as negative controls.
Medium background was averaged from 5 replicates. Assay incubation was done at 37°C, 180rpm and 85% relative humidity. The turbidity of each well was measured with a microplate spectrophotometer at 600 nm (LUMIstar® Omega BMG Labtech, Ortenberg, Germany). Growth inhibition was calculated relative to the absorption of the controls.
For S. tritici MUCL45408, a previously prepared spore solution was used to adjust the assay inoculum to 1 × 10^5 spores/mL in potato dextrose medium (Sigma Aldrich). Septoria assay plates were incubated for 4 days at 25°C, 180 rpm and 85% rH. Tebuconazole (Cayman Chemical Company, Ann Arbor, MI, USA) and amphotericin B (Sigma Aldrich) were used as positive control. Cell viability was evaluated via ATP quantification (BacTiter-Glo™, Promega, Walldorf, Germany) according to the manufacturer’s […]
Mycobacterium tuberculosis ITM-M006710 H37Ra (ATCC 9431) was incubated for 14 days in Middlebrook 7H9 broth (from ThermoFisher Scientific, Walthman, MA, USA) supplemented with 5.6 µg/mL palmitic acid (Sigma Aldrich), 1 mg/mL casitone (ThermoFisher Scientific), 5mg/mL BSA, 4µg/mL catalase (Sigma Aldrich), and 0.2% glycerol at 37°C, 180 rpm and 85% rH. In a first step, the culture was diluted to McFarland standard of 1, before the final inoculum density of a 1 × 10^6 cells/mL was obtained by further dilution with freshly prepared medium. Individual 12-point dilution series of rifampicin, ampicillin and gentamicin (ranging from 64-0.03 µg/mL) were used as positive controls. The assay plates were incubated for 7 days under microaerophilic conditions at 37°C/5% CO2 (BD gaspak CO2 system) and read-out was done by ATP quantification (s. above).
The MIC was defined as the minimum concentration where at least 85% growth inhibition relative to the negative control was measured. Relative inhibition for the microtiter turbidity tests (MTT) were […]
rel. inh.% = 100 * [1- (AU sample - AU Low)/(AU High - AU Low)]
AU: absorption unit at 600nm; Low: medium blank; High: negative control of maximal growth.
Accordingly, the BacTiter-Glo™ (BTG) assays were calculated as rel. inh.% = 100 * [1- (LU sample - LU Low)/(LU High - LU Low)]
AU: luminescence unit; Low: medium blank; High: negative control of maximal growth.
For Mycobacterium tuberculosis ATCC 35801 a resazurin microtiter assay was carried out as previously described8 Briefly, assay plates were set up by transferring 10 µl of compounds form a 1:2-fold dilution series in distilled and sterile water to a 96-well plate. The final assay´s concentrations range from 0.39-100 µM and as positive and negative control 5 µM rifampicin and 0.5% DMSO were used. Subsequently a bacterial suspension with Mycobacterium tuberculosis with a final OD560 of 0.0003 was prepared in […]

[2] = tested on: Escherichia coli ATCC35218; assay: MIC, microtiter turbidity test; assay type: cell-based
[3] = tested on: Septoria tritici MUCL45408; assay: MIC, BacTiter-Glo ATP quantification; assay type: cell-based; conditions: read-out: MIC Str
[4] = tested on: Staphylococcus aureus ATCC33592; assay: MIC, microtiter turbidity test; assay type: cell-based; conditions: read-out: MIC Sa
various Mtb strains = tested on: various Mtb strains; set-up: method as in PMID 27654337, PMID 29900893, PMID 36934122, PMID 32750539; conditions: cited from earlier work
[5] = tested on: Mycobacterium tuberculosis ATCC 35801; assay: Resazurin microtiter assay, second-tier BSL-3; assay type: cell-based
in vitro = conditions: human
[6] = Escherichia coli ATCC35218, MHII medium, turbidity at 600 nm, n=3, read-out: MIC Ec
[7] = Escherichia coli, ATCC35218, read-out: MIC Ec
[8] = Septoria tritici MUCL45408, PDB medium, 4 days, BacTiter-Glo, n=3
[9] = Zymoseptoria tritici, MUCL45408, 96 h
[10] = Staphylococcus aureus ATCC33592 (MRSA), MHII medium, turbidity at 600 nm, n=3
[11] = Staphylococcus aureus, ATCC 33592 / MRSA
[12] = Zymoseptoria tritici, 96 h, Septoria tritici MUCL45408, PDB medium, 4 days, BacTiter-Glo, n=3
[13] = ATCC 33592 / MRSA, Staphylococcus aureus ATCC33592 (MRSA), MHII medium, turbidity at 600 nm, n=3

Compound	MIC [1]	MIC [2, 6]	MIC [3, 8]	MIC [4, 10]	MIC [3, 12]	MIC [4, 13]	other results
c1ccc(N(c2ccccc2)c2nc(-c3ccccn3)c3ccc4ccccc4n23)cc1 [8a]	> 155 µM	>155 µM	>155 µM	>155 µM			MIC Mtb [1]: >155 µM; MIC [2, 7]: > 155 µM; MIC [3, 9]: > 155 µM; MIC [4, 11]: > 155 µM
CC(C)(C)C(O)(CCc1ccc(Cl)cc1)Cn1cncn1 (stereo not shown) [TEB, tebuconazole, reference compound]							MIC [3, 9]: > 0.01 µM
c1ccc(-c2nc(-c3ccccc3)n3c2ccc2ccccc23)cc1 [5b]	> 200 µM	>200 µM	>200 µM	>200 µM	> 200 µM	> 200 µM	MIC Mtb [1]: >200 µM
COc1ccccc1-c1nc(-c2ccccc2)n2c1ccc1ccccc12 [5i]	46 µM (≈ 16.1 µg/mL)	>183 µM	>183 µM	>183 µM	> 183 µM	> 183 µM	
c1ccc(-c2nc(-c3ccccn3)n3c2ccc2ccccc23)cc1 [6b]		>199 µM	>199 µM	>199 µM	> 199 µM	> 199 µM	
c1ccc(-c2nc(-c3ccccn3)c3ccc4ccccc4n23)cc1 [5c]	25 µM (≈ 8.03 µg/mL)	>199 µM	>199 µM	>199 µM	> 199 µM	> 199 µM	
CC(=O)[O-].CC(=O)[O-].[Cu+2] [Cu(OAc)2, reference compound]							MIC Mtb [1]: 43 µM
CC1(C)S[C@@H]2[C@H](NC(=O)[C@H](N)c3ccccc3)C(=O)N2[C@H]1C(=O)O [AMP, ampicillin, reference compound]	184 µM (≈ 64.3 µg/mL)						
c1ccc(-c2nc(-c3cccc4ccccc34)n3c2ccc2ccccc23)nc1 [7a]		>172 µM	>172 µM	>172 µM	> 172 µM	> 172 µM	
COc1nc2ccc(Br)cc2cc1[C@@H](c1ccccc1)[C@@](O)(CCN(C)C)c1cccc2ccccc12 [bendaquiline]							MIC, literature reported values (various Mtb strains): 0.03 to 1 µM
C[C@H]1COc2c(N3CCN(C)CC3)c(F)cc3c(=O)c(C(=O)O)cn1c23 [levofloxacin]							MIC, literature reported values (various Mtb strains): 0.8 to 1.4 µM
[Cl-].[Cl-].[Zn+2] [ZnCl2, reference compound]		> 470 µM		> 470 µM			MIC Mtb [1]: 235 µM
CNC(C)C1CCC(N)C(OC2C(N)CC(N)C(OC3OCC(C)(O)C(NC)C3O)C2O)O1 (stereo not shown) [gentamicin, reference compound]	4 µM (≈ 1.91 µg/mL)						
[Cl][Fe]([Cl])[Cl] [FeCl3, reference compound]		> 394 µM		> 394 µM			MIC Mtb [1]: > 394 µM
c1ccc(-c2ccc(-c3nc(-c4ccccc4)n4c3ccc3ccccc34)nc2)cc1 [5f]	34 µM (≈ 13.5 µg/mL)	>136 µM	>136 µM	>136 µM	> 136 µM	> 136 µM	
CC[C@@H](CO)NCCN[C@@H](CC)CO [ethambutol]							MIC, literature reported values (various Mtb strains): 0.3 to 3 µM
c1ccc(-c2nc(-c3ccccn3)n3c2ccc2ccccc23)nc1 [6a]		>198 µM	>198 µM	>198 µM	> 198 µM	> 198 µM	
CO[C@H]1/C=C/O[C@@]2(C)Oc3c(C)c(O)c4c(O)c(c(/C=N/N5CCN(C)CC5)c(O)c4c3C2=O)NC(=O)/C(C)=C\C=C\[C@H](C)[C@H](O)[C@@H](C)[C@@H](O)[C@@H](C)[C@H](OC(C)=O)[C@@H]1C [rifampicin, reference compound]	0.07 µM (≈ 0.0576 µg/mL)	5 µM (≈ 4.11 µg/mL)				> 78 µM	
CN(C)c1ccccc1-c1nc(-c2ccccc2)n2c1ccc1ccccc12 [5h]	2 µM (≈ 0.727 µg/mL)	>127 µM	>127 µM	>127 µM	> 127 µM	> 127 µM	
c1ccc(-c2nc(-c3cccs3)c3ccc4ccccc4n23)cc1 [5a]	> 196 µM	>196 µM	>196 µM	>196 µM			MIC Mtb [1]: >196 µM; MIC [2, 7]: > 196 µM; MIC [3, 9]: > 196 µM; MIC [4, 11]: > 196 µM
NCC[C@H](O)C(=O)N[C@@H]1C[C@H](N)[C@@H](O[C@H]2O[C@H](CN)[C@@H](O)[C@H](O)[C@H]2O)[C@H](O)[C@H]1O[C@H]1O[C@H](CO)[C@@H](O)[C@H](N)[C@H]1O [amikacin]							MIC, literature reported values (various Mtb strains): 0.4 to 1.7 µM
c1ccc(-c2nc(-c3ncccn3)c3ccc4ccccc4n23)cc1 [5e]	1 µM (≈ 0.322 µg/mL)	>148 µM	>148 µM	>148 µM	> 148 µM	> 148 µM	
c1ccc(-c2nc(-c3nccc4ccccc34)c3ccc4ccccc4n23)cc1 [5d]		>172 µM	>172 µM	>172 µM	> 172 µM	> 172 µM	
c1ccc(-c2nc(-c3cc4ccccc4cn3)c3ccc4ccccc4n23)cc1 [5g]	≤ 2 µM	>144 µM	>144 µM	>144 µM	> 144 µM	> 144 µM	inhibition at 20 µM ([5]; ATCC35801, Mtb ATCC 35801, 20 μM): 82%; IC90 ([5]; ATCC35801, read-out: IC90 Mtb ATCC 35801, resazurin, 7 days + 24 h): 132 µM; IC50 ([5]; ATCC35801, resazurin, 7 days + 24 h, read-out: IC50 Mtb ATCC 35801): 86.5 µM; IC90 ([5]; ATCC35801, resazurin, 7 days + 24 h, read-out: IC90 Mtb ATCC 35801): 136 µM; IC50 at 3 days (in vitro): > 100 µM
NNC(=O)c1ccncc1 [isoniazid]							MIC, literature reported values (various Mtb strains): 0.3 to 1.4 µM
C[C@@H]1[C@H](O)[C@@H](C)/C=C/C=C/C=C/C=C/C=C/C=C/C=C/[C@H](O[C@@H]2O[C@H](C)[C@@H](O)[C@H](N)[C@@H]2O)C[C@@H]2O[C@](O)(C[C@@H](O)C[C@@H](O)[C@H](O)CC[C@@H](O)C[C@@H](O)CC(=O)O[C@H]1C)C[C@H](O)[C@H]2C(=O)O [AMB, amphotericin B, reference compound]					0.135 µM (≈ 0.125 µg/mL)		
